# Biological target: T1, LPA receptor 1 (LPAR1) (Homo sapiens, UniProt Q92633)
# T1 construct: expressed in transfected cells; host or cells: HEK293A, transient
# Assay: cAMP GloSensor 22F, agonist-stimulated LPAR1
# Assay type: cell-based
# Conditions: preincubation with 100 μM or 10 μM; 10 µM forskolin
# Procedure: Next, we used the classical cAMP GloSensor technology to assess the target selectivity profile of 33. […] In addition, we tested the effects of 33 on cAMP changes mediated by agonist-stimulated GPCRs phylogenetically close to GPR3 and coupling to Gs or Gi/o proteins.
# BRET-based GPCR conformational sensor experiments
# Cells expressing the conformational GPCR biosensors were grown for 24 h (stable cells) or 48 h (transiently transfected cells) in white 96-well plates and washed with 100 µl of HBSS. After washing, cells were incubated for 2 minutes with a 1/1000 solution of the furimazine stock solution (Promega; cat. no. N1662). Three baseline BRET reads were recorded and averaged prior to the addition of serial dilutions of ligands or veh icle control and subsequent BRET reads. […] BRE T donor emission was quantified with a 470/80 nm monochromator. […] Experiments were carried out using a CLARIOstar plate reader.
# FRET- and BRET-based measurements of cAMP levels and Gs dissociation/reassociation Transfected cells grown in black 96-well plates were washed twice with 100 µl of HBSS 48 h after transfection and incubated with HBSS. […] Three baseline FRET/BRET reads were recorded and averaged prior to the addition of serial dilutions of ligands or vehicle control and sub-sequent FRET/BRET reads. […] FRET donor emission was quantified with a 480/10 nm filter. […]
# Luminescence measurement using the cAMP GloSensor™ 22F […]
# T1 sequence (Q92633 whole entry, species assumed): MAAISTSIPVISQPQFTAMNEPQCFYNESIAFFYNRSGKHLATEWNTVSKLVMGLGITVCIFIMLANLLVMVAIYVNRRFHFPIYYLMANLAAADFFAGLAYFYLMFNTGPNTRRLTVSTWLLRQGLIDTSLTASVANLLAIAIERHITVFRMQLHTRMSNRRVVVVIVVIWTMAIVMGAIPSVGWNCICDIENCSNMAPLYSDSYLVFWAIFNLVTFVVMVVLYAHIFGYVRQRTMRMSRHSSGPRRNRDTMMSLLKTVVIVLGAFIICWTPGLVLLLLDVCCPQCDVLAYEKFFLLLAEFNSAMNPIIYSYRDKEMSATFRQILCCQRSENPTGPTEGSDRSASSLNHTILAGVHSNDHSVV
smiles,measurement,value
N=c1n(Cc2ccccc2)c2ccccc2n1CC1CC1 [compound 33],effect on agonist-induced cAMP change mediated by LPAR1,neither 100 μM nor 10 μM 33 significantly altered

# — publication PMC13195669, “GPR3 Ligands Discovered through Combined Virtual and Conformational Biosensor-Based Screening” (Journal of the American Chemical Society, 2026)
